Converted amounts (≈) assume the structure as drawn. Read-outs that look alike come from different tables or passages of the source.
Key:
[1] = tested on: Enterococcus faecalis ATCC 29212; details: taken from NCCLS, M31-A2, 2002; cited from earlier work
[2] = tested on: Escherichia coli ATCC 25922; details: taken from NCCLS, M31-A2, 2002; cited from earlier work
[3] = tested on: Escherichia coli ATCC 25922; assay: MIC range and interpretive result on gram-negative reference strain; format: cell-based; details: for Interpretive result: MIC range against breakpoints LB + UB; for MIC range: data validated by MERLIN Diagnostika GmbH
Procedure: (§1) Determining the susceptibility with the microtiter plate 1 depends on the rehydration of antibiotics by the addition of a standardised bacterial suspension. The result is measured after 18-24 hours incubation at 35-37° C. photometrically with MICRONAUT Skan or another suitable photometer and analysed with MICRONAUT Software or visually read and interpreted.
(§2) Test Procedure 1. Gram Preparation: • Gram-positive bacteria appear blue, gram-negative bacteria red. It is recomended that the gram stain is determined according to standard protocol or the recommendations on the manufacturer's kit. 2. Inoculum Production • Prepare a test tube with 5 ml NaCl 0.9% pH 5.5 to 6.5. • Remove several individually located colonies of a pure culture which is 18-24 hours old from the blood agar (without additives). • Homogenise the colonies well in 5 ml NaCl 0.9% until the turbidity corresponds to a McFarland of 0.5. 3. Inoculation in Broth • 3.1 Mueller-Hinton broth or modified ISO-Sensitest broth. • For gram-negative bacteria, 50 μl of the bacterial suspension is pipetted into 11 ml Mueller-Hinton II broth or modified ISO-Sensitest broth and well homogenised. • For gram-positive bacteria, 100 μl of the bacterial suspension is pipetted into 11 ml Mueller-Hinton II broth or modified ISO-Sensitest broth and well homogenised. • 3.2H-Broth • For fastidious bacteria, 200 μl of the bacterial suspension is transferred into 11 ml preheated H-Broth and homogenised. 4. Inoculation (Broth-Microdilution) • Remove microtiter plate from the individual packaging max. 30 minutes before inoculation and dispose of the dessicant. • Label test plate. • Dispense the prepared suspension according to the plate layout into a 2-channel reservoir. • The inoculation of the microtiter plate is carried out manually with a multi-channel pipette, 100 μl per well. 5. Sealing and Incubation • 5.1 Mueller-Hinton II broth or modified ISO-Sensitest broth • After inoculating seal the test plates with an unperforated adhesive film or cover with an unused microtiter plate (max. 5 test plates stacked). • Incubate test plate 18-24 hours at 35-37° C. • 5.2H-Broth • After inoculating the test plates cover with an unused microtiter plate or with a perforated cover film. • Incubate test plate 22 to 24 hours at 35 to 37° C. in the incubator with CO2 gassing. 6. Reading • Remove adhesive film. • Wipe test plate from below. • Reading of test plate with photometer or visually. 7. Analysis • The bacterial growth is determined using a photometric measurement at a wave length of 620 nm or 690 nm—according to the broth used. • The result is analysed, interpreted and checked for its plausibility by means of MICRONAUT Software. The growth control must be overgrown (turbid), otherwise the test must be repeated. With visual readout the results should be recorded on a plate layout plan. The test result can be seen on the screen or on the findings report. 8. Interpretation of the Results
(§3) Breakpoint Interpretation • For antibiotics which are tested in four or fewer consecutive concentrations or in non-consecutive concentrations, interpreting categories are determined, namely susceptible, intermediate and resistant, on the basis of low and upper breakpoint MIC values (See attachment: Tables IIA and IIB, Tables IIIA, IIIB, IIIC and IIID and Table IV). The lower breakpoint (LB) is represented by the MIC value which prevents sufficient and visible bacterial growth, ie the bacterial isolate is susceptible to the antibiotic. […] Using MICRONAUT Software, MIC values can be automatically analysed and interpreted for a given bacterial isolate and antibiotic. […]

[4] = tested on: Enterococcus faecalis ATCC 29212; assay: MIC range and interpretive result on gram-positive reference strain; format: cell-based; details: for Interpretive result: MIC range against breakpoints LB + UB; for MIC range: data validated by MERLIN Diagnostika GmbH
Procedure: as §1, §2, §3

[5] = tested on: Staphylococcus aureus ATCC 29213; details: taken from NCCLS, M31-A2, 2002; cited from earlier work
[6] = tested on: Pseudomonas aeruginosa ATCC 27853; details: taken from NCCLS, M31-A2, 2002; cited from earlier work
[7] = tested on: Pseudomonas aeruginosa ATCC 27853; assay: MIC range and interpretive result on gram-negative reference strain; format: cell-based; details: for Interpretive result: MIC range against breakpoints LB + UB; for MIC range: data validated by MERLIN Diagnostika GmbH
Procedure: as §1, §2, §3

[8] = tested on: Staphylococcus aureus ATCC 29213; assay: MIC range and interpretive result on gram-positive reference strain; format: cell-based; details: for Interpretive result: MIC range against breakpoints LB + UB; for MIC range: data validated by MERLIN Diagnostika GmbH
Procedure: as §1, §2, §3

[9] = tested on: S.E. Leipzig (field strain); assay: Broth microdilution MIC, resistance marker discrimination, field strain S.E. Leipzig; format: cell-based, Salmonella Enteritidis; details: chicken, validated at Lohmann Animal Health
Procedure: as §1
(§4) Test Procedure 1. Gram Preparation: • Gram-positive bacteria appear blue, gram-negative bacteria red. It is recomended that the gram stain is determined according to standard protocol or the recommendations on the manufacturer's kit. 2. Inoculum Production • Prepare a test tube with 5 ml NaCl 0.9% pH 5.5 to 6.5. • Remove several individually located colonies of a pure culture which is 18-24 hours old from the blood agar (without additives). • Homogenise the colonies well in 5 ml NaCl 0.9% until the turbidity corresponds to a McFarland of 0.5. 3. […] Reading • Remove adhesive film. • Wipe test plate from below. • Reading of test plate with photometer or visually. […] Analysis • The bacterial growth is determined using a photometric measurement at a wave length of 620 nm or 690 nm—according to the broth used. • The result is analysed, interpreted and checked for its plausibility by means of MICRONAUT Software. […] With visual readout the results should be recorded on a plate layout plan. […]
as §3, with “IV).” for “IV). The lower breakpoint (LB) is represented by the MIC value which prevents sufficient and visible bacterial growth, ie the bacterial isolate is susceptible to the antibiotic.”

[10] = tested on: S.E. Sm24/Rif12/Ssq (vaccine strain); assay: Broth microdilution MIC, resistance marker discrimination, vaccine strain S.E. Sm24/Rif12/Ssq; format: cell-based, Salmonella Enteritidis; details: chicken, validated at Lohmann Animal Health
Procedure: as §1, §4
as §3, with “IV).” for “IV). The lower breakpoint (LB) is represented by the MIC value which prevents sufficient and visible bacterial growth, ie the bacterial isolate is susceptible to the antibiotic.”

[11] = tested on: S.Tm. Nal2/Rif9/Rtt (vaccine strain); assay: Broth microdilution MIC, resistance marker discrimination, vaccine strain S.Tm. Nal2/Rif9/Rtt; format: cell-based, Salmonella Typhimurium; details: chicken, validated at Lohmann Animal Health
Procedure: as §1
as §4, with “2.” for “2. Inoculum Production • Prepare a test tube with 5 ml NaCl 0.9% pH 5.5 to 6.5. • Remove several individually located colonies of a pure culture which is 18-24 hours old from the blood agar (without additives). • Homogenise the colonies well in 5 ml NaCl 0.9% until the turbidity corresponds to a McFarland of 0.5. 3.”
(§5) Breakpoint Interpretation • For antibiotics which are tested in four or fewer consecutive concentrations or in non-consecutive concentrations, interpreting categories are determined, namely susceptible, intermediate and resistant, on the basis of low and upper breakpoint MIC values (See attachment: Tables IIA and IIB, Tables IIIA, IIIB, IIIC and IIID and Table IV). […]

[12] = tested on: S.Tm. Moskau 415 (field strain); assay: Broth microdilution MIC, resistance marker discrimination, field strain S.Tm. Moskau 415; format: cell-based, Salmonella Typhimurium; details: chicken, validated at Lohmann Animal Health
Procedure: as §1
as §4, with “2.” for “2. Inoculum Production • Prepare a test tube with 5 ml NaCl 0.9% pH 5.5 to 6.5. • Remove several individually located colonies of a pure culture which is 18-24 hours old from the blood agar (without additives). • Homogenise the colonies well in 5 ml NaCl 0.9% until the turbidity corresponds to a McFarland of 0.5. 3.”
as §5

## CC1(C)S[C@@H]2[C@H](NC(=O)[C@H](N)c3ccccc3)C(=O)N2[C@H]1C(=O)O [Ampicillin]
[1]
  MIC range: 0.5 to 2 µg/mL
[2]
  MIC range: 2 to 8 µg/mL
[3]
  Interpretive result: S
[4]
  Interpretive result: S

## CO/N=C(\C(=O)N[C@@H]1C(=O)N2C(C(=O)O)=C(CSC(=O)c3ccco3)CS[C@H]12)c1csc(N)n1 [Ceftiofur]
[5]
  MIC range: 0.25 to 1 µg/mL
[6]
  MIC range: 16 to 64 µg/mL
[2]
  MIC range: 0.25 to 1 µg/mL
[7]
  Interpretive result: R
[3]
  Interpretive result: S
[8]
  Interpretive result: S

## CCN1CCN(c2cc3c(cc2F)c(=O)c(C(=O)O)cn3C2CC2)CC1 [Enrofloxacin]
[1]
  MIC range: 0.12 to 1 µg/mL
[5]
  MIC range: 0.03 to 0.12 µg/mL
[6]
  MIC range: 1 to 4 µg/mL
[2]
  MIC range: 0.008 to 0.03 µg/mL
[7]
  Interpretive result: I/R
[3]
  Interpretive result: S
[8]
  Interpretive result: S
[4]
  Interpretive result: S/I

## CC[C@H]1OC(=O)[C@H](C)[C@@H](O[C@H]2C[C@@](C)(OC)[C@@H](O)[C@H](C)O2)[C@H](C)[C@@H](O[C@@H]2O[C@H](C)C[C@H](N(C)C)[C@H]2O)[C@](C)(O)C[C@@H](C)C(=O)[C@H](C)[C@@H](O)[C@]1(C)O [Erythromycin]
[9]
  MIC range: ≧20 μg/ml
[1]
  MIC range: 1 to 4 µg/mL
[10]
  MIC range: ≦5 μg/ml
[5]
  MIC range: 0.12 to 1 µg/mL
[11]
  MIC range: ≦5 μg/ml
[12]
  MIC range: ≧20 μg/ml
[8]
  Interpretive result: S/I
[4]
  Interpretive result: I

## CCC[C@@H]1C[C@@H](C(=O)N[C@@H]([C@H]2O[C@H](SC)[C@H](O)[C@@H](O)[C@H]2O)[C@@H](C)O)N(C)C1 [Lincomycin]
[7]
  Interpretive result: R
  MIC range: 32 µg/mL (≈ 78.7 µM)
[8]
  Interpretive result: S/I
  MIC range: 0.5 to 2 µg/mL
[4]
  Interpretive result: R
  MIC range: 8 to 32 µg/mL

## Cc1onc(-c2ccccc2)c1C(=O)N[C@@H]1C(=O)N2[C@@H]1SC(C)(C)[C@@H]2C(=O)O [Oxacillin]
[1]
  MIC range: 8 to 32 µg/mL
[5]
  MIC range: 0.12 to 0.5 µg/mL
[8]
  Interpretive result: S
[4]
  Interpretive result: R

## CC1(C)S[C@@H]2[C@H](NC(=O)Cc3ccccc3)C(=O)N2[C@H]1C(=O)O [Penicillin G]
[1]
  MIC range: 1 to 4 µg/mL
[5]
  MIC range: 0.25 to 2 µg/mL
[8]
  Interpretive result: R
[4]
  Interpretive result: S

## CO[C@H]1/C=C/O[C@@]2(C)Oc3c(C)c(O)c4c(O)c(c(/C=N/N5CCN(C)CC5)c(O)c4c3C2=O)NC(=O)/C(C)=C\C=C\[C@H](C)[C@H](O)[C@@H](C)[C@@H](O)[C@@H](C)[C@H](OC(C)=O)[C@@H]1C [Rifampicin]
[9]
  MIC range: <50 µg/mL
[10]
  MIC range: >50 µg/mL
[11]
  MIC range: >50 µg/mL
[12]
  MIC range: <50 µg/mL

## CN[C@@H]1[C@H](O)[C@H](NC)[C@H]2O[C@@]3(O)C(=O)C[C@@H](C)O[C@H]3O[C@@H]2[C@H]1O [Spectinomycin]
[1]
  MIC range: 64 to 256 µg/mL
[5]
  MIC range: 64 to 256 µg/mL
[2]
  MIC range: 8 to 64 µg/mL
[3]
  Interpretive result: S/R
[8]
  Interpretive result: R
[4]
  Interpretive result: R

## [H]/N=C(/N)N[C@H]1[C@H](O)[C@@H](O)[C@H](O[C@@H]2O[C@@H](C)[C@](O)(C=O)[C@H]2O[C@@H]2O[C@@H](CO)[C@H](O)[C@@H](O)[C@@H]2NC)[C@@H](N/C(N)=N\[H])[C@@H]1O [Streptomycin]
[9]
  MIC range: <200 µg/mL
[10]
  MIC range: >200 µg/mL

## CN(C)[C@@H]1C(O)=C(C(N)=O)C(=O)[C@@]2(O)C(O)=C3C(=O)c4c(O)cccc4[C@@](C)(O)[C@H]3C[C@@H]12 [Tetracycline]
[7]
  Interpretive result: R
[3]
  Interpretive result: S
[8]
  Interpretive result: S
[4]
  Interpretive result: I/R

## C=C[C@]1(C)C[C@@H](OC(=O)CSCCN(CC)CC)[C@]2(C)[C@H](C)CC[C@]3(CCC(=O)[C@H]32)[C@@H](C)[C@@H]1O [Tiamulin]
[5]
  MIC range: 0.5 to 2.0 µg/mL
[8]
  Interpretive result: S

## Colistin
[7]
  Interpretive result: S/I
  MIC range: 0.5 to 2 µg/mL
[3]
  Interpretive result: S
  MIC range: ≦0.5 μg/ml
[8]
  Interpretive result: R
  MIC range: 64 µg/mL

## Gentamicin
[1]
  MIC range: 4 to 16 µg/mL
[5]
  MIC range: 0.12 to 1 µg/mL
[6]
  MIC range: 0.5 to 2 µg/mL
[2]
  MIC range: 0.25 to 1 µg/mL
[7]
  Interpretive result: S
[3]
  Interpretive result: S
[8]
  Interpretive result: S
[4]
  Interpretive result: S/I/R

## Neomycin
[3]
  Interpretive result: S
  MIC range: 0.5 to 2 µg/mL
[8]
  Interpretive result: S
  MIC range: 0.5 to 2 µg/mL
[4]
  Interpretive result: R
  MIC range: 16 to 64 µg/mL
